According to ChEMBL document CHEMBL4706501, “Drug repurposing: Discovery of troxipide analogs as potent antitumor agents” (Eur J Med Chem, 2020):
pIC50: −log10 of the molar value.

How the values were obtained:
Format in all cases: functional, cell-based
[1] = tested on: PC-9; assay: Antiproliferative activity against human PC9 cells assessed as reduction in cell viability after 24 to 72 hrs by MTT assay
[2] = tested on: PC-3; assay: Antiproliferative activity against human PC3 cells assessed as reduction in cell viability after 24 to 72 hrs by MTT assay
[3] = tested on: MGC-803; assay: Antiproliferative activity against human MGC-803 cells assessed as reduction in cell viability after 24 to 72 hrs by MTT assay
[4] = tested on: MCF7; assay: Antiproliferative activity against human MCF7 cells assessed as reduction in cell viability after 24 to 72 hrs by MTT assay

Question: Which results are given for `O=c1[nH]cc(F)c(=O)[nH]1` [FLUOROURACIL]?
Answer: pIC50 [1]: 5.39; pIC50 [2]: 5.27

Question: `COc1cc(C(=O)NC2CCCNC2)cc(OC)c1OC` (stereo unspecified) [TROXIPIDE] was tested. Which pIC50 [3] did it give?
Answer: < 4.00

Question: What about the pIC50 [1] of the same molecule?
Answer: < 4.00

Question: What about the pIC50 [2] of the same molecule?
Answer: < 4.00

Question: What about the pIC50 [4] of the same molecule?
Answer: < 4.00
